# Publication PMC8253220, “Molecular design, synthesis and in vitro biological evaluation of thienopyrimidine–hydroxamic acids as chimeric kinase HDAC inhibitors: a challenging approach to combat cancer” (Journal of Enzyme Inhibition and Medicinal Chemistry, 2021)
# Values joined by “and” are separate entries in the source; they are usually repeats but may differ in a detail not shown here. Equal entries are not always repeated.
# Tests used:
# Test in all cases: NCI one-dose screen
# Type in all cases: cell-based, human
# 786-0 = settings: Renal 786-0, 10 µM single dose
# In short: (§1)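 One concentration (10 μM) applied to each line of the full NCI-60 panel; percent growth compared against untreated cells.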
# A549/ATCC = settings: NSCLC A549/ATCC, 10 µM single dose
# In short: as §1
# CAKI-1 = settings: Renal CAKI-1, 10 µM single dose
# In short: as §1
# CCRF-CEM = settings: Leukemia CCRF-CEM, 10 µM single dose
# In short: as §1
# COLO 205 = settings: Colon COLO 205, 10 µM single dose
# In short: as §1
# DU-145 = settings: Prostate DU-145, 10 µM single dose
# In short: as §1
# EKVX = settings: NSCLC EKVX, 10 µM single dose
# In short: (§2)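 In vitro antiproliferative testing: NCI-60 panel, initial single dose 10 μM, inhibition % derived from percent growth of treated versus untreated control cells.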
# HCC-2998 = settings: Colon HCC-2998, 10 µM single dose
# In short: as §1
# HCT-116 = settings: Colon HCT-116, 10 µM single dose
# In short: as §1
# HL-60(TB) = settings: Leukemia HL-60(TB), 10 µM single dose
# In short: (§3)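 At 10 μM, a single concentration, compounds were evaluated for antiproliferative effect in the NCI 60-line screen, with growth expressed relative to untreated control cells.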
# HOP-62 = settings: NSCLC HOP-62, 10 µM single dose
# In short: as §2
# HS 578T = settings: Breast HS 578T, 10 µM single dose
# In short: as §1
# HT29 = settings: Colon HT29, 10 µM single dose
# In short: as §1
# IGROV1 = settings: Ovarian IGROV1, 10 µM single dose
# In short: as §1
# LOX IMVI = settings: Melanoma LOX IMVI, 10 µM single dose
# In short: as §1
# M14 = settings: Melanoma M14, 10 µM single dose
# In short: as §1
# MALME-3M = settings: Melanoma MALME-3M, 10 µM single dose
# In short: as §1
# MDA-MB-435 = settings: Melanoma MDA-MB-435, 10 µM single dose
# In short: as §1
# NCI-H226 = settings: NSCLC NCI-H226, 10 µM single dose
# In short: as §2
# NCI-H322M = settings: NSCLC NCI-H322M, 10 µM single dose
# In short: as §1
# NCI-H522 = settings: NSCLC NCI-H522, 10 µM single dose
# In short: as §2
# OVCAR-4 = settings: Ovarian OVCAR-4, 10 µM single dose
# In short: as §1
# OVCAR-5 = settings: Ovarian OVCAR-5, 10 µM single dose
# In short: as §1
# RPMI-8226 = settings: Leukemia RPMI-8226, 10 µM single dose
# In short: as §1
# RXF 393 = settings: Renal RXF 393, 10 µM single dose
# In short: as §1
# SF-268 = settings: CNS SF-268, 10 µM single dose
# In short: (§4)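 Treated at 10 μM (single dose) within the NCI full 60-line panel. Inhibition % computed from growth against untreated control.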
# SF-539 = settings: CNS SF-539, 10 µM single dose
# In short: as §4
# SK-MEL-2 = settings: Melanoma SK-MEL-2, 10 µM single dose
# In short: as §2
# SK-MEL-5 = settings: Melanoma SK-MEL-5, 10 µM single dose
# In short: as §1
# SK-OV-3 = settings: Ovarian SK-OV-3, 10 µM single dose
# In short: as §1
# SN12C = settings: Renal SN12C, 10 µM single dose
# In short: as §1
# SNB-19 = settings: CNS SNB-19, 10 µM single dose
# In short: as §2
# SNB-75 = settings: CNS SNB-75, 10 µM single dose
# In short: as §2
# SR = settings: Leukemia SR, 10 µM single dose
# In short: as §1
# SW-620 = settings: Colon SW-620, 10 µM single dose
# In short: as §3
# TK-10 = settings: Renal TK-10, 10 µM single dose
# In short: as §1
# UO-31 = settings: Renal UO-31, 10 µM single dose
# In short: as §2
Structure (SMILES),Growth Percent (786-0),Growth Percent (A549/ATCC),Growth Percent (CAKI-1),Growth Percent (CCRF-CEM),Growth Percent (COLO 205),Growth Percent (DU-145),Growth Percent (EKVX),Growth Percent (HCC-2998),Growth Percent (HCT-116),Growth Percent (HL-60(TB)),Growth Percent (HOP-62),Growth Percent (HS 578T),Growth Percent (HT29),Growth Percent (IGROV1),Growth Percent (LOX IMVI),Growth Percent (M14),Growth Percent (MALME-3M),Growth Percent (MDA-MB-435),Growth Percent (NCI-H226),Growth Percent (NCI-H322M),other results
"Cc1c(C(=O)NO)sc2ncnc(Nc3cccc4[nH]cnc34)c12 [Compound 15a, 4-(1H-benzo[d]imidazol-4-ylamino)-N-hydroxy-5-methylthieno[2,3-d]pyrimidine-6-carboxamide]",102.1% and 102.13%,99.5% and 99.51%,92.9% and 92.95%,110.7% and 110.72%,112.8% and 112.81%,109.5% and 109.53%,98.4% and 98.44%,100.9% and 100.92%,103.9% and 103.95%,101.2% and 101.27%,104.2%,106.4% and 106.47%,103.9% and 103.93%,97.9% and 97.91%,97.5% and 97.58%,106.5% and 106.58%,109.7% and 109.71%,101.5% and 101.54%,99.3% and 99.31%,99.4% and 99.43%,Growth Percent (NCI-H522): 94.4% and 94.42%; Growth Percent (OVCAR-4): 111.9% and 111.94%; Growth Percent (OVCAR-5): 107.0% and 107.01%; Growth Percent (RPMI-8226): 112.17%; Growth Percent (RXF 393): 101.2% and 101.28%; Growth Percent (SF-268): 93.9%; Growth Percent (SF-539): 102.5% and 102.52%; Growth Percent (SK-MEL-2): 115.8% and 115.88%; Growth Percent (SK-MEL-5): 101.5% and 101.54%; Growth Percent (SK-OV-3): 124.5% and 124.53%; Growth Percent (SN12C): 102.0% and 102.01%; Growth Percent (SNB-19): 98.9% and 98.99%; Growth Percent (SNB-75): 81.0% and 81.08%; Growth Percent (SR): 106% and 106.56%; Growth Percent (SW-620): 103.6% and 103.66%; Growth Percent (TK-10): 113.8% and 113.84%; Growth Percent (UO-31): 80.6% and 80.64%
"Cc1c(C(=O)NO)sc2ncnc(Nc3ccccc3)c12 [Compound 15b, N-hydroxy-5-methyl-4-(phenylamino)thieno[2,3-d]pyrimidine-6-carboxamide]",98.6% and 98.65%,98.3% and 98.37%,77.6% and 77.61%,98.7% and 98.78%,115.6% and 115.62%,100.1% and 100.13%,92.7% and 92.76%,99.9% and 99.98%,102.9%,103.0% and 103.03%,103.6% and 103.61%,104.7% and 104.75%,100.5% and 100.52%,87.7%,96.0% and 96.03%,100.4% and 100.48%,101.18%,98.5% and 98.58%,89.3% and 89.32%,101.8% and 101.81%,Growth Percent (NCI-H522): 86.6% and 86.62%; Growth Percent (OVCAR-4): 94.7% and 94.72%; Growth Percent (OVCAR-5): 98.4% and 98.41%; Growth Percent (RPMI-8226): 106.0% and 106.04%; Growth Percent (RXF 393): 97.2% and 97.22%; Growth Percent (SF-268): 91.8% and 91.83%; Growth Percent (SF-539): 92.8% and 92.86%; Growth Percent (SK-MEL-2): 109.3% and 109.33%; Growth Percent (SK-MEL-5): 99.0% and 99.02%; Growth Percent (SK-OV-3): 125.8% and 125.83%; Growth Percent (SN12C): 92.8% and 92.82%; Growth Percent (SNB-19): 93.0% and 93.06%; Growth Percent (SNB-75): 74.2% and 74.29%; Growth Percent (SR): 78.2%; Growth Percent (SW-620): 89.5% and 89.53%; Growth Percent (TK-10): 123.2% and 123.28%; Growth Percent (UO-31): 72.7% and 72.78%
